Measured values: US20220184091A1, “Methods of Treating Cancer with Chk1 Inhibitors” (Sierra Oncology, Inc., priority 2019, published 2022)

What was measured:
PD-L1 = assay: Western blot of total PD-L1 in SCLC cell lines; format: cell-based; settings: all SCLC cell lines tested; 1 μM for 72 hours
Method: (§1) Western blot analysis was performed using SDS-PAGE followed by transfer to nitrocellulose membrane using the BioRad Gel system. Membranes were incubated in the following primary antibodies (1:1000) overnight: PD-L1 (CST), total and phospho- (S366) STING (CST), total and phospho- (S396) IRF3 (CST), phospho-YH2AX (CST) and Actin (Sigma). Secondary anti-rabbit, HRP-linked antibodies were purchased from Cell Signaling Biosciences and detected using the Chemidoc imaging system mage-captured with Image Studio Version 3.1 software.

SW1990 = assay: Cell viability, pancreatic cancer line SW1990; format: cell-based; settings: Homo sapiens
[1] = test system: HGSOC PDX, OVCAR3, Ep-Myc, MOLM-13, TH-MYC, MDA-MB-231, Renca, LL/2 models; assay: In vivo efficacy of SRA737 as a single agent; parameters: species or system mouse
Method: A program of in vivo efficacy studies was performed to assess the activity of SRA737 in combination with genotoxic chemotherapy and targeted agents, and as monotherapy.
One of these models also carried a MYCN amplification. A fourth HGSOC PDX model with partial resistance to PARPi was also sensitive to high dose SRA737 monotherapy.

STING pathway = assay: Western blot of STING pathway markers in SCLC cell lines; format: cell-based; settings: H1694 and H847 cell lines; 1 μM; 24 and 72 hours
Method: as §1

[2] = Phase 1 clinical study, SRA737 monotherapy dose escalation; settings: human, in vivo
Method: A Phase 1 clinical trial was conducted in ‘all comers,’ i.e. no genetic selection was performed, to establish safety, tolerability and pharmacokinetics (“Dose Escalation Phase”). Cohorts consisting initially of a single subject received escalating doses of SRA737, starting in Cohort 1 with 20 mg/day administered orally on a continuous daily dosing schedule in 28 day cycles. the dose was escalated until the maximum tolerated dose (MTD) was identified.
In the Dose Escalation Phase, 18 subjects received SRA737 in 9 dose level cohorts, from 20 to 1300 mg QD; median treatment duration 62.5 days (range 1 to 226). […] Two of 3 subjects experienced DLTs at the 1300 mg once daily dose, each being an inability to receive 75% of the planned SRA737 dose due to GI intolerability, with the individual GI effects being low grade. […] A cohort receiving 500 mg twice daily was added to determine if a twice daily dosing schedule can improve GI tolerability, given the half-life of SRA737 is approximately 10 hours. One of 6 subjects experienced DLTs in the 500 mg twice daily cohort; this was an inability to receive 75% of the planned SRA737 dose due to grade 4 thrombocytopenia with grade 3 neutropenia and anemia.

MC38 = MC38 colon flank tumor growth in immunocompetent mice; format: in vivo, mouse
Method: Tumors were evaluated twice weekly for the duration of the study. Tumor volumes were measured on all mice three times per week and calculated (width^2×length×0.4) using manual calipers. Once the average tumor size was in the range of 120-150 mm^3, mice were randomized into dosing groups using stratified sampling by assigning three animals per group for short-term reverse-phase protein array analysis and long-term treatment. Dosing schedules and duration varied depending on the study. Mice were weighed three times per week for the duration of the study, and a decrease in body weight >15% was considered indicative of a toxic dose. The Student t-test was used to determine statistical significance between compound- and vehicle-treated groups.
Tumors cells were implanted into the flank of immunocompetent mice. Once the volumes of the tumor reached 150-200 mm^3, the mice were randomized and treated with either monotherapy of SRA737 at 100 mg/kg for 5-days-on/2-days-off p.o., anti-PD1 BIW at 10 mg/kg i.p. or the combination thereof.

[3] = test system: cryopreserved hepatocytes; assay: Rank order of stability in cryopreserved hepatocytes across species; format: in vitro ADME, human, mouse, rat, dog, minipig and monkey; settings: 10 μM, up to 4 hours
Method: The formation of SRA737-related metabolites was determined in cryopreserved hepatocytes from human, mouse, rat, dog, minipig and monkey samples after incubation with SRA737 at a nominal concentration of 10 μM for up to 4 hours. […] In the human hepatocyte preparation, approximately 67% of the parent remained after 4 hours of incubation compared to 75% and 7% in the rat and minipig preparations, respectively. Eight human SRA737 metabolites were observed. All SRA737 metabolites formed by human hepatocytes were also formed by monkey hepatocytes. Six metabolites were present at equal or greater abundance in the monkey.

[4] = Phase 1 clinical study, SRA737 in combination with gemcitabine, dose escalation; format: in vivo; settings: human, mean
Method: A Phase 1 clinical trial was conducted in ‘all comers,’ i.e. no genetic selection was performed, to establish safety, tolerability and pharmacokinetics for SRA737 administered in combination with gemcitabine (“Dose Escalation Phase”). Cohorts consisting initially of a single subject received escalating doses of SRA737, starting in Cohort 1 with 40 mg/day administered orally on days 2, 3, 9, 10, 16, and 17 of each 28-day cycle. Cohorts also received various doses of gemcitabine, starting in Cohort 1 with 300 mg/m^2/day administered IV over 30 minutes on days 1, 8, and 15 of each 28-day cycle.
FIG. 5 presents a summary of dosing amounts for the cohorts tested. In the Dose Escalation Phase, a total of 55 subjects received SRA737 in 13 dose escalation cohorts at doses of 40 to 600 mg SRA737 combined with LDG doses of 50 to 300 mg/m^2.

[5] = Excretion of SRA737 in rats; format: in vivo; settings: rat; over 24 hours
Method: The excretion of SRA737 has been studied in mice and rats administered SRA737 at either 5 mg/kg IV or 10 mg/kg orally. Urine and feces were collected for a 24-hour period after dosing. In mice, renal excretion of intact SRA737 was consistently low (less than 10% of dose) after both oral and IV administration. Following IV administration of SRA737, less than 8% of the dose was recovered as intact drug in the feces while after oral administration this figure was less than 3%. Excretion of intact SRA737 was lower in the rat than in the mouse with <1% of dose excreted renally over 24 hours and less than 1.5% of dose excreted into the feces over 24 hours.

SNU-C1 = assay: Cell viability, colon cancer line SNU-C1; format: cell-based; settings: Homo sapiens
[6] = 600 mg, Day 10, combination with gemcitabine

N#Cc1cnc(Nc2cc(NCC3CNCCO3)c(C(F)(F)F)cn2)cn1 (stereo not shown) [SRA737, 5-[[4-[[morpholin-2-yl]methylamino]-5-(trifluoromethyl)-2-pyridyl]amino]pyrazine-2-carbonitrile]
total PD-L1 levels (PD-L1): significantly increased
IC50 (SW1990): 700 nM
sensitivity to high dose monotherapy ([1]; fourth HGSOC PDX model with partial resistance to PARPi): sensitive
antitumor activity as a single agent ([1]; several HGSOC PDX models with CCNE1 amplifications and TP53 mutations, data not shown): Significant antitumor activity
STING pathway (pSTING_S366, STING, pIRF3_S396 and IRF3) (STING pathway): Activation of the STING pathway
doses that exceeded the level effective in preclinical models [2]: ≥ 300 mg
T1/2 ([2]; 800 mg): 10.3 h
TGI (MC38; SRA737 100 mg/kg 5-days-on/2-days-off p.o., anti-PD1 BIW 10 mg/kg i.p.): 48%
tumor growth inhibition (MC38; altered regimen SRA737 7-days-on/7-days-off, anti-PD-1 Days 3, 7 and 11): 61%
rank order of stability from most stable to least stable [3]: rat≈mouse >monkey≈human >>dog >>minipig
AUC0-24 ([4]; 40 mg, Day −7): 637 ng·h/mL
Cmax ([4]; 80 mg, Day −7): 146 ng/mL
Cmax ([4]; 300 mg, Day −7): 995 ng/mL
AUC0-12 [4, 6]: 11,860 ng · h/mL
Cmax [4, 6]: 2,109 ng/mL
T1/2 ([4]; 600 mg, Day −7): 11.1 h
dose excreted into the feces [5]: less than 1.5 % of dose
dose excreted renally [5]: < 1 % of dose
IC50 (SNU-C1): 1300 nM
